Legend:
Type in all cases: in vivo
[1] = test system: Spodoptera littoralis (Egyptian Cotton Leaf Worm); assay: Example B9: Activity against Spodoptera littoralis, lettuce grown on treated agar; conditions: 144 h, test rate of 12.5 ppm, compound mixed with agar, taken up by lettuce roots, 6 days after infestation, read-out: effect in at least one of the three categories (mortality, anti-feedancy, or growth inhibition)
Text: Test compounds were applied by pipette from 10′000 ppm DMSO stock solutions into 24-well plates and mixed with agar. Lettuce seeds were placed on the agar and the multi well plate was closed by another plate which contains also agar. After 7 days the roots have absorbed the compound and the lettuce has grown into the lid plate. The lettuce leafs were now cut off into the lid plate. Spodoptera eggs were pipetted through a plastic stencil on a humid gel blotting paper and the plate closed with it. The samples were assessed for mortality, anti-feedant effect and growth inhibition in comparison to untreated samples 6 days after infestation.

[2] = test system: Mysus persicae (Green Peach Aphid); assay: Example B4: Activity against Mysus persicae, sunflower leaf discs sprayed; conditions: Myzus persicae, foliar, 144 h, application rate of 200 ppm, aphid population of mixed ages, 6 days after infestation
Protocol: (§1) Sunflower leaf discs were placed on agar in a 24-well microtiter plate and sprayed with aqueous test solutions prepared from 10′000 ppm DMSO stock solutions. After drying, the leaf discs were infested with an aphid population of mixed ages. The samples were assessed for mortality 6 days after infestation.

[3] = test system: Euschistus heros (Neotropical Brown Stink Bug); assay: Example B3: Activity against Euschistus heros, soybean leaf sprayed; conditions: 120 h, application rate of 200 ppm, N-2 nymphs, 5 days after infestation, read-out: effect in at least one of the two categories (mortality or growth inhibition)
Protocol: Soybean leaf on agar in 24-well microtiter plates were sprayed with aqueous test solutions prepared from 10′000 ppm DMSO stock solutions. After drying the leaf were infested with N-2 nymphs. The samples were assessed for growth inhibition in comparison to untreated samples 5 days after infestation.

[4] = test system: Diabrotica balteata (Corn Root Worm); assay: Example B2: Activity against Diabrotica balteata, maize sprouts sprayed; conditions: 96 h, application rate of 200 ppm, L2 larvae, 4 days after infestation
Protocol: Maize sprouts, placed on an agar layer in 24-well microtiter plates were treated with aqueous test solutions prepared from 10′000 ppm DMSO stock solutions by spraying. After drying, the plates were infested with L2 larvae (6 to 10 per well). The samples were assessed for mortality 4 days after infestation.

[5] = test system: Spodoptera littoralis (Egyptian Cotton Leaf Worm); assay: Example B8: Activity against Spodoptera littoralis, cotton leaf discs sprayed; conditions: foliar, 72 h, application rate of 200 ppm, L1 larvae, 3 days after infestation, read-out: control (at least one of mortality, anti-feedant effect, and growth inhibition)
Protocol: Cotton leaf discs were placed on agar in 24-well microtiter plates and sprayed with aqueous test solutions prepared from 10′000 ppm DMSO stock solutions. After drying the leaf discs were infested with five L1 larvae. The samples were assessed for mortality, anti-feedant effect, and growth inhibition in comparison to untreated samples 3 days after infestation. Control of Spodoptera littoralis by a test sample is when at least one of mortality, anti-feedant effect, and growth inhibition is higher than the untreated sample.

[6] = test system: Aedes aegypti (Yellow Fever Mosquito); assay: whole plant or invertebrate; conditions: 48 h, test rate of 5 ppm, L2 larvae, incubation period of 2 days, read-out: effect in at least one of the two categories (mortality or growth inhibition)
Protocol: 10 to 15 Aedes larvae (L2) together with a nutrition mixture were placed in 96-well microtiter plates. Test compounds were pipetted into the wells. After an incubation period of 2 days insects were assessed for mortality and growth inhibition.

[7] = test system: Bemisia tabaci (Cotton White Fly); assay: Example B1: Activity against Bemisia tabaci, cotton leaf discs sprayed; conditions: foliar, 144 h, application rate of 200 ppm, adult white flies, 6 days after incubation
Protocol: Cotton leaf discs were placed on agar in 24-well microtiter plates and sprayed with aqueous test solutions prepared from 10′000 ppm DMSO stock solutions. After drying the leaf discs were infested with adult white flies. The samples were checked for mortality 6 days after incubation.

[8] = test system: Mysus persicae (Green Peach Aphid); assay: Example B6: Activity against Mysus persicae, sucrose solution under Parafilm; conditions: Myzus persicae, 120 h; test rate of 12 ppm; mixed with sucrose solution; 5 days after infestation
Protocol: Test compounds from 10′000 ppm DMSO stock solutions were applied by pipette into 24-well microtiter plates and mixed with sucrose solution. The plates were closed with a stretched Parafilm. A plastic stencil with 24 holes was placed onto the plate and infested pea seedlings were placed directly on the Parafilm. The infested plate was closed with a gel blotting paper and another plastic stencil and then turned upside down. The samples were assessed for mortality 5 days after infestation.

[9] = test system: Plutella xylostella (Diamond Back Moth); assay: Example B7: Activity against Plutella xylostella, artificial diet; conditions: 120 h, application rate of 200 ppm, L2 larvae, 5 days after infestation, read-out: effect in at least one of the two categories (mortality or growth inhibition)
Protocol: 24-well microtiter plates with artificial diet were treated with aqueous test solutions prepared from 10′000 ppm DMSO stock solutions by pipetting. After drying, the plates were infested with L2 larvae (10 to 15 per well). The samples were assessed for mortality and growth inhibition in comparison to untreated samples 5 days after infestation.

[10] = test system: Tetranychus urticae (Two-Spotted Spider Mite); assay: Example B10: Activity against Tetranychus urticae, feeding/contact activity; conditions: 192 h
Protocol: Bean leaf discs on agar in 24-well microtiter plates were sprayed with aqueous test solutions prepared from 10′000 ppm DMSO stock solutions. After drying the leaf discs were infested with a mite population of mixed ages. The samples were assessed for mortality on mixed population (mobile stages) 8 days after infestation.

[11] = test system: Mysus persicae (Green Peach Aphid); assay: Example B5: Activity against Mysus persicae, roots of pea seedlings in test solutions; conditions: Myzus persicae, 144 h, test rate of 24 ppm, 6 days
Protocol: Roots of pea seedlings infested with an aphid population of mixed ages were placed directly in the aqueous test solutions prepared from 10′000 DMSO stock solutions. The samples were assessed for mortality 6 days after placing seedlings in test solutions.

[12] = test system: Thrips tabaci (Onion Thrips); assay: Example B11: Activity against Thrips tabaci, feeding/contact activity; conditions: 144 h, application rate of 200 ppm, thrips population of mixed ages, 6 days after infestation
Protocol: as §1, with “in” for “in a”, “plates” for “plate”, “drying” for “drying,”, “a thrips” for “an aphid”

CCSc1ccccc1-n1cc2cnc(C(F)(F)F)cc2n1 [Compound P1, 2-(2-ethylsulfanylphenyl)-6-(trifluoromethyl)pyrazolo[4,3-c]pyridine]
≥ 80%: percent control (mortality, anti-feedancy or growth inhibition) at 12.5 ppm [1] | mortality at 200 ppm [2] | percent effect (mortality or growth inhibition) at 200 ppm [3] | mortality at 200 ppm [4] | mortality at 200 ppm [5] | percent effect (mortality or growth inhibition) at 5 ppm [6] | mortality at 200 ppm [7] | mortality at 12 ppm [8] | percent effect (mortality or growth inhibition) at 200 ppm [9] | mortality at 200 ppm [10]

CCS(=O)(=O)c1ccccc1-n1cc2cnc(C(F)(F)F)cc2n1 [Compound P2, 2-(2-ethylsulfonylphenyl)-6-(trifluoromethyl)pyrazolo[4,3-c]pyridine]
≥ 80%: mortality at 24 ppm [11] | mortality at 200 ppm [2] | mortality at 200 ppm [4] | mortality at 200 ppm [5] | mortality at 200 ppm [7] | percent effect (mortality or growth inhibition) at 200 ppm [9]

CCSc1cccnc1-n1cc2cnc(C(F)(F)F)cc2n1 [Compound P3, 2-(3-ethylsulfanyl-2-pyridyl)-6-(trifluoromethyl)pyrazolo[4,3-c]pyridine]
≥ 80%: percent control (mortality, anti-feedancy or growth inhibition) at 12.5 ppm [1] | mortality at 200 ppm [2] | percent effect (mortality or growth inhibition) at 200 ppm [3] | mortality at 200 ppm [4] | mortality at 200 ppm [5] | mortality at 12 ppm [8] | percent effect (mortality or growth inhibition) at 200 ppm [9]

CCS(=O)(=O)c1cccnc1-n1cc2cnc(C(F)(F)F)cc2n1 [Compound P4, 2-(3-ethylsulfonyl-2-pyridyl)-6-(trifluoromethyl)pyrazolo[4,3-c]pyridine]
≥ 80%: percent control (mortality, anti-feedancy or growth inhibition) at 12.5 ppm [1] | mortality at 24 ppm [11] | mortality at 200 ppm [2] | percent effect (mortality or growth inhibition) at 200 ppm [3] | mortality at 200 ppm [4] | mortality at 200 ppm [5] | percent effect (mortality or growth inhibition) at 200 ppm [9]

CCS(=O)(=O)c1cccnc1-n1cc2cnc(Br)cc2n1 [Compound P6, 6-bromo-2-(3-ethylsulfonyl-2-pyridyl)pyrazolo[4,3-c]pyridine]
≥ 80%: mortality at 200 ppm [2] | mortality at 200 ppm [4]

CCS(=O)(=O)c1cc(C(F)(F)F)cnc1-n1cc2cnc(C(F)(F)F)cc2n1 [Compound P7, 2-[3-ethylsulfonyl-5-(trifluoromethyl)-2-pyridyl]-6-(trifluoromethyl)pyrazolo[4,3-c]pyridine]
≥ 80%: percent control (mortality, anti-feedancy or growth inhibition) at 12.5 ppm [1] | mortality at 200 ppm [2] | percent effect (mortality or growth inhibition) at 200 ppm [3] | mortality at 200 ppm [4] | mortality at 200 ppm [5] | percent effect (mortality or growth inhibition) at 5 ppm [6] | percent effect (mortality or growth inhibition) at 200 ppm [9]

CCS(=O)(=O)c1cc(Br)cnc1-n1cc2cnc(C(F)(F)F)cc2n1 [Compound P8, 2-(5-bromo-3-ethylsulfonyl-2-pyridyl)-6-(trifluoromethyl)pyrazolo[4,3-c]pyridine]
≥ 80%: mortality at 200 ppm [2] | percent effect (mortality or growth inhibition) at 200 ppm [3] | mortality at 200 ppm [4] | mortality at 200 ppm [5] | percent effect (mortality or growth inhibition) at 200 ppm [9]

CCS(=O)(=O)c1cc(C2CC2)cnc1-n1cc2cnc(C(F)(F)F)cc2n1 [Compound P9, 2-(5-cyclopropyl-3-ethylsulfonyl-2-pyridyl)-6-(trifluoromethyl)pyrazolo[4,3-c]pyridine]
≥ 80%: mortality at 200 ppm [4] | mortality at 200 ppm [5]

CCS(=O)(=O)c1cc(-c2ccccc2)cnc1-n1cc2cnc(C(F)(F)F)cc2n1 [Compound P10, 2-(3-ethylsulfonyl-5-phenyl-2-pyridyl)-6-(trifluoromethyl)pyrazolo[4,3-c]pyridine]
≥ 80%: mortality at 200 ppm [2] | percent effect (mortality or growth inhibition) at 200 ppm [3] | mortality at 200 ppm [4] | mortality at 200 ppm [12] | mortality at 200 ppm [5] | percent effect (mortality or growth inhibition) at 200 ppm [9]

CCS(=O)(=O)c1cccnc1-n1cc2nnc(C(F)(F)F)cc2n1 [PP1, 2-(3-ethylsulfonyl-2-pyridyl)-6-(trifluoromethyl)pyrazolo[4,3-c]pyridazine]
≥ 80%: mortality at 200 ppm [2] | percent effect (mortality or growth inhibition) at 200 ppm [3] | mortality at 200 ppm [4] | mortality at 200 ppm [5] | percent effect (mortality or growth inhibition) at 200 ppm [9]

— patent US9949483B2, “Pesticidally active heterocyclic derivatives with sulphur containing substituents” (Syngenta Participations AG, priority 2014, dated 2018)
